Measurements from paper PMC6853232, “Discovery and evaluation of novel synthetic 5-alkyl-4-oxo-4,5-dihydro-[1,2,4]triazolo[4,3-a]quinoxaline-1-carbox-amide derivatives as anti-inflammatory agents” (Journal of Enzyme Inhibition and Medicinal Chemistry, 2019).

How the values were obtained:
[1] = system: IL-6 production in LPS-stimulated RAW264.7 cells; test: Cytokine production assay (ELISA), IL-6; type: cell-based, mouse
Protocol: RAW264.7 cells were seeded at 3 × 10^5 cells/well in a 48-well microplate and incubated overnight.The cells were pre-treated with the different concentrations of the test compunds (3, 7.5, 10 or 30 µM) for 30 min before the stimulation with LPS (1 µg/mL). According to the protocol of the manufacturer, supernatants were harvested at the 24th hour for the assay of TNF-α or IL-6 with ELISA kits (BD Biosciences, San Diego, CA, USA). Briefly, 100 µL of biotinylated antibody reagent and the culture supernatants were added to anti-mouse TNF-α or IL-6 precoated 96-well plates, and the plates were incubated for 2 h at RT. The plate was washed with a washing buffer and subsequently incubated with 100 µL of the streptavidin-HRP solution for 1 h at RT. The plate was washed, and incubated with 100 µL of TMB substrate solution for 30 min at RT in the dark. The reaction was stopped by adding 50 µL of stop solution, and then the absorbance was measured at 450 nm by a plate reader. A standard curve was produced for each assay plate using serially diluted recombinant IL-6.

[2] = system: iNOS protein expression in LPS-induced RAW 264.7 cells; test: Western blot, iNOS protein expression; type: cell-based, mouse
Protocol: (§1) The cells were collected and washed three times with ice-cold PBS. The cells were treated with a cell lysis buffer [50 mM Tris (pH 7.6), 150 mM NaCl, 5 mM EDTA (pH 8.0), 0.6% NP-40, 1 mM Na3VO4, 20 mM β-glycerophosphate, 1 mM phenylmethylsulfonyl fluoride, 2 mM p-nitrophenyl phosphate, and 1:25 Complete Mini Protease Inhibitor cocktail (Boehringer, Mannheim,Germany)] and kept on ice for 30 min. The cell lysates were centrifuged (12,000 g at 4 °C) for 5 min to obtain a cytosolic fraction. The protein concentration was determined by BCA protein assay kit (Beyotime, Haimen, China). Aliquots of the lysates were separated on 10% sodium dodecyl sulphate (SDS)-polyacrylamide gel electrophoresis (PAGE) and then electro blotted onto a polyvinylidene difluoride (PVDF) membrane. The blots were blocked with 5% (w/v) non-fat dry milk for 2 h at 37 °C, followed by incubation with specific primary antibody at 4 °C overnight. Blots were washed with Tween 20/Tris-buffered saline [TTBS, 20 mM Tris–HCl buffer, pH 7.6, containing 137 mM NaCl and 0.05% (vol/vol) Tween 20] and incubated with a peroxidase-conjugated secondary antibody for 1 h. Blots were again washed with TTBS and the immune active proteins were detected using ECL plus (Thermo, USA). […] Results are expressed as the relative ratio of the specific band compared with the internal reference.

[3] = system: phosphorylation of ERK in RAW 264.7 cells; test: Western blot, LPS-induced phosphorylation of ERK; type: cell-based, mouse
Protocol: RAW 264.7 cells (5 × 10^5 cells/well) plated onto 6-well plates were incubated for 24 h and treated with 7.5, 15.0 or 30.0 µM of compound 6p for 30 min and then stimulated with […] of LPS for 24 h. The cells were collected and washed three times with ice-cold PBS. The cells were treated with a cell lysis buffer [50 mM Tris (pH 7.6), 150 mM NaCl, 5 mM EDTA (pH 8.0), 0.6% NP-40, 1 mM Na3VO4, 20 mM β-glycerophosphate, 1 mM phenylmethylsulfonyl fluoride, 2 mM p-nitrophenyl phosphate, and 1:25 Complete Mini Protease Inhibitor cocktail (Boehringer, Mannheim,Germany)] and kept on ice for 30 min. The cell lysates were centrifuged (12,000 g at 4 °C) for 5 min to obtain a cytosolic fraction. The protein concentration was determined by BCA protein assay kit (Beyotime, Haimen, China). Aliquots of the lysates were separated on 10% sodium dodecyl sulphate (SDS)-polyacrylamide gel electrophoresis (PAGE) and then electro blotted onto a polyvinylidene difluoride (PVDF) membrane. The blots were blocked with 5% (w/v) non-fat dry milk for 2 h at 37 °C, followed by incubation with specific primary antibody at 4 °C overnight. […] Blots were again washed with TTBS and the immune active proteins were detected using ECL plus (Thermo, USA). […] Results are expressed as the relative ratio of the specific band compared with the internal reference.

[4] = system: COX-2 protein expression in LPS-induced RAW 264.7 cells; test: Western blot, COX-2 protein expression; type: cell-based, mouse; conditions: 15 µM, LPS 1 µg/mL, p < .001
Protocol: as §1

[5] = system: gastric mucosa (stomach lesions); test: Ulcerogenic effect; type: in vivo; conditions: 25 mg/kg p.o. once a day for three days, rats
Protocol: The lead compound D1 and the newly synthesised compound 6p were subjected to in vivo testing to measure their ulcerogenic effect in comparison to celecoxib and ibuprofen. Male albino rats (220–250 g) divided into 5 groups (control, D1, 6p, ibuprofen and celecoxib group) of five rats each. The groups with D1, 6p, ibuprofen, and celecoxib were administered oral administration (p.o.) 25 mg/kg in a vehicle of 0.5% methylcellulose, respectively. The negative control group was treated with the same vehicle (0.5% methylcellulose). All groups were orally administered once a day for three consecutive days. Animals were sacrificed by diethyl ether 6 h after the last dose and the stomach was removed. An opening at the greater curvature was made and the stomach was cleaned by washing with cold saline and inspected with a three-time magnifying lens for any evidence of hyperaemia, haemorrhage, definite haemorrhagic erosion, or ulcer. An arbitrary scale was used to calculate the ulcer index which indicates the severity of the stomach lesions The % ulceration for each group was calculated as follows: % Ulceration = Number of animals bearing ulcer in a group/Total number of animals in the same group ×100.

With `COc1cc(Cn2c(=O)c3nnc(C(N)=O)n3c3ccccc32)cc(OC)c1OC` [6p, 5-(3,4,5-trimethoxybenzyl)-4-oxo-4,5-dihydro-[1,2, 4]triazolo[4,3-a]quinoxaline-1-carboxamide] the “production of IL-6” value ([1]; 3 µM, p < .001) was “significantly inhibited”, the “LPS-induced increase in IL-6 levels” value ([1]; LPS 1 µg/mL, 24 h, different concentrations) was “inhibited in a concentration-dependent manner” and the “inhibition of iNOS protein expression” value ([2]; 30 µM, LPS 1 µg/mL, p < .001) was 39.89%. For the same molecule, the “iNOS protein expression, dose dependence” value ([2]; 7.5, 15 and 30 µM) was “dose-dependent manner”, the “phosphorylation of ERK” value ([3]; 30 µM, p < .001) was “markedly diminished” and the “LPS-induced phosphorylation of ERK, concentration dependence” value ([3]; 7.5, 15 and 30 µM) was “concentration-dependent manner”. For the same molecule, the “inhibition of COX-2 protein expression” value [4] was 53.44% and the “% ulceration” value [5] was 20%.
